Measurements as given in patent US20060013769A1, “Transdermal drug delivery formulations and method of determining optimal amounts of vasodilators therein” (priority 2004, published 2006).
One block for each compound: values may come before it.

Legend:
Type in all cases: in vivo
[1] = Topical ibuprofen vehicle with papaverine applied to rabbits, ibuprofen in plasma over three hours
Procedure: (§1) Test formulations containing 15% ibuprofen-sodium salt, 5% oleic acid, 10% menthol, 5% propylene glycol, 10% dimethylacetamide, 1% decylmethylsulfoxide, 1% u-care, varying amounts of papaverine ranging from 0-1%, and 52-53% deionized water were each blended in a beaker with a mechanical mixer and heated to 40° C. for 30 minutes until clear, then cooled to room temperature.
(§2) 150 mg of sodium salt-ibuprofen was formulated with the above lipid-based vehicle formulatiosn containing increasing amounts of the vasodilator papaverine. The Ibuprofen vehicle was topically applied to rabbits and blood samples were taken over a three-hour period. Plasma was prepared and analyzed for the amount of ibuprofen present in the blood. The data represents the integrated value of ibuprofen concentration in the blood for the three hour time period for each concentration of papaverine.

[2] = Topical ibuprofen vehicle with tolazoline applied to rabbits, ibuprofen in plasma over three hours
Procedure: as §1, with “tolazoline” for “papaverine”, “0-0.1%,” for “0-1%,”, “52.9-53%” for “52-53%”
as §2, with “tolazoline.” for “papaverine.”

[3] = Topical ibuprofen vehicle with tocopherol nicotinate applied to rabbits, ibuprofen in plasma over three hours
Procedure: as §1, with “tocopherol nicotinate in the range of” for “papaverine ranging from”
as §2, with “with a 1-gram dose of” for “with”, “formulations” for “formulatiosn”, “containing the” for “containing”, “tocopherol nicotinate.” for “papaverine.”

[4] = tested on: blood flow; assay: Maximal blood flow stimulated by vasodilator, laser Doppler perfusion imager
Procedure: Maximal blood flow stimulated by the vasodilator tolazoline was measured using a laser Doppler perfusion imager.

- integrated value of ibuprofen concentration in the blood (0-3 hr) ([1]; 0.00010% papaverine in vehicle): 5120 ng·h/mL
- integrated value of ibuprofen concentration in the blood (0-3 hr) ([1]; 0.00025% papaverine in vehicle): 4470 ng·h/mL
- integrated value of ibuprofen concentration in the blood (0-3 hr) ([1]; 0.00050% papaverine in vehicle): 8370 ng·h/mL
- integrated value of ibuprofen concentration in the blood (0-3 hr) ([1]; 0.0010% papaverine in vehicle): 7620 ng·h/mL
- integrated value of ibuprofen concentration in the blood (0-3 hr) ([1]; 0.0100% papaverine in vehicle): 5720 ng·h/mL
- integrated value of ibuprofen concentration in the blood (0-3 hr) ([1]; 0.100% papaverine in vehicle): 4230 ng·h/mL
- integrated value of ibuprofen concentration in the blood (0-3 hr) ([1]; 1.000% papaverine in vehicle): 6160 ng·h/mL
- integrated value of ibuprofen concentration in the blood (0-3 hr) ([1]; Control (no papaverine), 150 mg sodium salt-ibuprofen in vehicle): 1030 ng·h/mL
- integrated value of ibuprofen concentration in the blood (0-3 hr) ([2]; 0.0010% tolazoline in vehicle): 3900 ng·h/mL
- integrated value of ibuprofen concentration in the blood (0-3 hr) ([2]; 0.0050% tolazoline in vehicle): 5240 ng·h/mL
- integrated value of ibuprofen concentration in the blood (0-3 hr) ([2]; 0.0100% tolazoline in vehicle): 5660 ng·h/mL
- integrated value of ibuprofen concentration in the blood (0-3 hr) ([2]; 0.0500% tolazoline in vehicle): 3530 ng·h/mL
- integrated value of ibuprofen concentration in the blood (0-3 hr) ([2]; 0.100% tolazoline in vehicle): 4530 ng·h/mL
- integrated value of ibuprofen concentration in the blood (0-3 hr) ([2]; Control (no tolazoline), 150 mg sodium salt-ibuprofen in vehicle): 1030 ng·h/mL
- integrated value of ibuprofen concentration in the blood (0-3 hr) ([3]; 0.00010% tocopherol nicotinate in vehicle): 3980 ng·h/mL
- integrated value of ibuprofen concentration in the blood (0-3 hr) ([3]; 0.00025% tocopherol nicotinate in vehicle): 9480 ng·h/mL
- integrated value of ibuprofen concentration in the blood (0-3 hr) ([3]; 0.00050% tocopherol nicotinate in vehicle): 3120 ng·h/mL
- integrated value of ibuprofen concentration in the blood (0-3 hr) ([3]; 0.0010% tocopherol nicotinate in vehicle): 5080 ng·h/mL
- integrated value of ibuprofen concentration in the blood (0-3 hr) ([3]; 0.0100% tocopherol nicotinate in vehicle): 5840 ng·h/mL
- integrated value of ibuprofen concentration in the blood (0-3 hr) ([3]; 0.100% tocopherol nicotinate in vehicle): 4300 ng·h/mL
- integrated value of ibuprofen concentration in the blood (0-3 hr) ([3]; 1.000% tocopherol nicotinate in vehicle): 4400 ng·h/mL
- integrated value of ibuprofen concentration in the blood (0-3 hr) ([3]; Control (no tocopherol nicotinate), 150 mg sodium salt-ibuprofen in 1 g vehicle): 1030 ng·h/mL
SMILES: CC(C)Cc1ccc(C(C)C(=O)O)cc1 (centres unmarked) [Ibuprofen, ibuprofen]

SMILES: c1ccc(CC2=NCCN2)cc1 [tolazoline]
- concentration at which the maximum blood flow was achieved [4]: 0.5%
